Data published in publication PMC8959600 (eLife, 2022).
Values after ≈ are worked out from the molar mass of the structure shown.

Tests used:
S. flexneri 2457T [1] = test: microbe, parasite or virus in culture; type: cell-based, Shigella flexneri; conditions: Shigella flexneri, 2457T
Procedure: Bacterial inoculum without drug was used as positive control. The bacteria inoculum (1 × 10^5 CFU/mL) for the assay was prepared by diluting a log phase incubated at 37 °C for 3–4 hr. Mueller Hinton agar plates were prepared containing 4xMIC and 10xMIC and inoculated with different concentrations of bacteria (1 × 10^9, 1 × 10^8, and 1 × 10^7 CFU/mL). Plates were prepared in duplicate and incubated overnight at 37 °C. The frequency of spontaneous resistant mutants was calculated by using the formula: FoR = resistant CFUs/inoculum CFUs. The mean of the two plates was reported.

Shigella flexneri 2457T = test: Resazurin growth inhibition, dose response (IC50/IC90) in Müller Hinton medium; type: cell-based; conditions: ATCC700930
Procedure: We developed a high-throughput screening (HTS) method to identify compounds that could inhibit the growth of Shigella flexneri 2457T in Müller Hinton medium (Sigma Aldrich, UK). We adapted a resazurin reduction protocol from Franzblau et al. as surrogate readout for bacterial viability because it provided a stable signal, a low interference level, and was cost effective ([Franzblau et al., 1998]). Prior to the day of experimentation, one colony was used to inoculate 50 mL Mueller Hinton medium, and the culture was incubated overnight at 37 °C. The next day, 500 μL of the bacterial culture were inoculated into 50 mL fresh Mueller Hinton medium and bacterial growth was measured periodically at 600 nm. When the culture reached OD = 0.4–0.6, the inoculum was diluted to 1 × 10^6 CFU/mL; this bacterial suspension was added to compound pre-dispensed plates for screening.
The assay was performed in 1536-well polystyrene assay plates (HiBase, μClear, Greiner Bio‐One) and used to screen ~1.7 million compounds from (a) GSK naïve chemical diversity, (b) GSK antibacterial programs, and (c) marketed antimicrobial agents. All commercially available chemicals were purchased from either Sigma Aldrich, UK, AK Scientific, or Fischer Chemicals. The GSK compound screening set was sub-selected from the 8 million compound GSK collection using the principles described by Harper and co-workers ([Harper et al., 2004]). The process to generate the structural filters to remove compounds bearing undesirable/reactive chemotypes and/or non-developable physicochemical properties has been described previously by [Chakravorty et al., 2018]. […]. The set of marketed antibacterial agents included most commercial antimicrobial agents.
For screening, plates were prepared by dispensing 50 nl of compound from master plates at 1 mM in each well using a LabCyte Echo system. The final assay volume was 5 μl and the final compound concentration was 10 µM. The 11th and 12th columns were growth controls containing 50 nL of DMSO. The 34th and 35th columns contained 50 nL of Moxifloxacin at 20 μM as negative growth controls. Five µl of bacterial inoculum was dispensed into compound pre-dispensed plates using a Multidrop Combi dispenser (Thermo Scientific). Plates were agitated for 10 s to ensure mixing and incubated at 37 °C overnight (16–17 hr). Following overnight culture, 2 µl resazurin solution (Resazurin tablets for milk testing, BDH) was added to each well and incubated at room temperature in the dark for 3 hr. Fluorescence intensity was measured using an Envision plate reader (PerkinElmer). […] Data were analysed using Base software and statistical cut-off analysis was used for ‘hit’ selection following a standard GSK protocol. To calculate the statistical cut-off, percentage growth inhibition was calculated per well according to the plate controls, these values were aggregated to calculate the robust mean and standard deviation (SD) of the distribution. The robust mean was calculated starting from the median and the MAD of the distribution with an iterative process that aimed to remove outliers. Once the mean and SD were calculated, all compounds above mean + 3 SD were selected as primary hits.
After the initial screen, we generated fresh samples of the primary compound hits and tested them in duplicate against S. flexneri 2457T at 10 μM to confirm activity. The confirmed hit list was narrowed by applying the following filters: a 30% cut-off value, absence of undesirable structural features (e.g. electrophiles, peroxides, and Michael acceptors) and reduced physicochemical risk (maximum five aromatic rings and PFI <8)([Leeson and Young, 2015]). […].

S. flexneri 2457T [2] = test: Gnotobiotic piglet Shigella infection model, efficacy; type: in vivo; conditions: piglets
[3] = Intestinal distribution by MALDI imaging in mice; type: in vivo
Procedure: One animal was euthanised at 0.25, 0.5, 1, and 4 hr respectively and 2.5–3 cm sections of the intestine (duodenum, jejunum, ileum, caecum, and colon) were collected and frozen at –80 °C. For quantitative LCMS analysis of intestine homogenate, samples were thawed at ambient temperature, mixed with water (1:1) and homogenised by turrax (10 sec). Subsequently, 20 µL of homogenate were mixed with 200 µl of ACN: MeOH (80:20) and filtered using 0.2 µm filter plate (Whatman). LCMS analysis was performed as described in previous section. For MALDI imaging, 50 mm of the central part of each intestinal section were cut and mounted in a sample disc on dry ice with a solution of 1% methylcellulose (Sigma Aldrich, UK). Next, tissue sections of 12 µm (sagital sections) were obtained using a cryostat (Leica CM3600; Leica Microsystems Inc, Wetzlar, Germany) at –20 °C and collected in conductive-coated slides for MALDI Imaging (Bruker Daltonic). After the ‘MALDI’ section was obtained a consecutive section for histology was taken. Prior to matrix coating, samples for MALDI were optical scanned in a PathScanner. The matrix deposition was conducted in a sprayer ImagePrep System (Bruker Daltonic) which uses vibrational vaporisation technology. As matrix solution α-CHCA (α-Cyano-4-hydroxycinnamic acid (Sigma Aldrich) dissolved in 70:30 methanol/water (v/v) containing 0.2% TFA at 7 mg/mL was used. MALDI MSI data were obtained using a Bruker UltrafleXtream MALDI TOF/TOF (Bruker Daltonic, Germany)).
Both compounds were analysed in positive mode using a LIFT method. For Tebipenem, parent compound was 384.32 and the detection mass window between m/z 0–400. 298.164 were the most intensive fragment. […] We used a laser shut at 85% power with a 50 μm step size, 100 times at raster spot in random wak mode. FlexImaging 4.1(bruker Daltoninc, Germany) were used for the data visualisation. […]
MALDI Imaging is not a quantitative technique, therefore, the colour scale of images is relative to the maximum intensity (100 corresponds with the maximal signa in each slide). […]

S. flexneri EG478 = test: Solid medium test at 10 µM and dose-response MIC against MDR clinical isolate; type: cell-based, Shigella flexneri; conditions: for bactericidal activity: MDR clinical isolate S. flexneri EG478; for MIC range: range over S. flexneri EG478 and S. sonnei 02-1181
Procedure: (§1) The confirmed hit list was narrowed by applying the following filters: a 30% cut-off value, absence of undesirable structural features (e.g. electrophiles, peroxides, and Michael acceptors) and reduced physicochemical risk (maximum five aromatic rings and PFI <8)([Leeson and Young, 2015]). […] Briefly, the selected bacteria were cultured on the Luria-Bertani agar overnight at 37 °C (Campylobacter isolates were grown in 2.5% Laked Horse Blood cation-adjusted Mueller Hinton medium (CAMHB, Sigma Aldrich) and incubated in microaerophilic conditions (10% CO2, 5% O2 and 85% N2) at 42 °C); colonies were added to sterile PBS to form 0.5 McFarland solutions. All chemical testing was performed at an initial concentration of 10 μM. Bacterial suspensions were evenly spread on Mueller-Hinton agar by sterile cotton swabs (Medical Wire – MWE). […] Plates were incubated overnight at 37 °C. The activity of the chemical was recorded as being active (yes) or non-active (no) for each of the tested chemicals.
(§2) MICs were evaluated using the micro dilution assay in Müller Hinton broth using 1 mM chemical stock solutions, and a final concentration of 5 × 10^5 CFU/mL bacteria. Twofold serial dilutions were prepared in 96-well plates at concentration ranging from 1 μM to 7.8 nM. 100 μL bacteria were added and incubated at 37 °C overnight; 10 μl of each solution was dropped onto Luria-Bertani agar and incubated overnight at 37 °C for the detection of bacterial growth. Results were interpreted as minimal concentration necessary to inhibit growth.

S. sonnei 02–1181 = test: as above; type: cell-based, Shigella sonnei
Procedure: as §1, §2

S. flexneri 2457T [4] = type: in vivo; conditions: mice, 40 mg/kg PO, 24 hr post infection, limit of quantification 80

Molecule CO[C@H]1/C=C/O[C@@]2(C)Oc3c(C)c(O)c4c(O)c(c(/C=N/N5CCN(C)CC5)c(O)c4c3C2=O)NC(=O)/C(C)=C\C=C\[C@H](C)[C@H](O)[C@@H](C)[C@@H](O)[C@@H](C)[C@H](OC(C)=O)[C@@H]1C [Rifampicin] has an MIC (S. flexneri 2457T [1]) of 3.7 µM (≈ 3.04 µg/mL).
Molecule CC1(C)S[C@@H]2[C@H](/N=C/N3CCCCCC3)C(=O)N2[C@H]1C(=O)O [Mecillinam] has an IC90 (Shigella flexneri 2457T) of 0.058 µg/mL (≈ 0.178 µM) and an MIC (S. flexneri 2457T [1]) of 0.2 µM (≈ 0.0651 µg/mL).
In the case of C[C@@H](O)[C@H]1C(=O)N2C(C(=O)OCOC(=O)C(C)(C)C)=C(SC3CN(C4=NCCS4)C3)[C@H](C)[C@H]12 [Tebipenem pivoxil], the “histopathology of the large intestine vs placebo” value (S. flexneri 2457T [2]; day six post infection) is reported as “marked reduction in intestinal lesions and inflammation”, the “CFU/g Shigella in stool” value (S. flexneri 2457T [2]; single dose given 24 hr after infection, from 1 × 10^7, within 24 hr) is reported as “zero” and the “MALDI detection in the intestinal lumen” value ([3]; 60 min after oral pro-drug) is reported as “not detectable in the lumen”. The “MALDI detection within enterocytes” value ([3]; after oral pro-drug) was “not detected within enterocytes”.
With COc1c(N2C[C@@H]3CCCN[C@@H]3C2)c(F)cc2c(=O)c(C(=O)O)cn(C3CC3)c12 [Moxifloxacin] the MIC (S. flexneri 2457T [1]) was 0.2 µM (≈ 0.0803 µg/mL).
In the case of C[C@@H](O)[C@H]1C(=O)N2C(C(=O)O)=C(S[C@@H]3CN[C@H](C(=O)N(C)C)C3)[C@H](C)[C@H]12 [Meropenem], the bactericidal activity (S. flexneri EG478) is reported as “greatest bactericidal activity”, the MIC range (S. flexneri EG478) is reported as 0.15 µg/mL (≈ 0.391 µM) and the bactericidal activity (S. sonnei 02–1181) is reported as “greatest bactericidal activity”.
In the case of C[C@@H](O)[C@H]1C(=O)N2C(C(=O)O)=C(S[C@@H]3CN[C@H](C(=O)Nc4cccc(C(=O)O)c4)C3)[C@H](C)[C@H]12 [Ertapenem], the bactericidal activity (S. flexneri EG478) is reported as “greatest bactericidal activity”, the MIC range (S. flexneri EG478) is reported as 0.04 to 0.15 µg/mL and the bactericidal activity (S. sonnei 02–1181) is reported as “greatest bactericidal activity”.
With C[C@@H](O)[C@H]1C(=O)N2C(C(=O)O)=C([C@H]3CCCO3)S[C@H]12 [Faropenem] the MIC range (S. flexneri EG478) was 2.5 to 6.25 µg/mL.
For CC1(C)S[C@@H]2[C@H](NC(=O)[C@H](N)c3ccccc3)C(=O)N2[C@H]1C(=O)O [Ampicilin], the MIC (S. flexneri 2457T [1]) was 7.5 µM (≈ 2.62 µg/mL).
Molecule CC[C@H]1OC(=O)[C@H](C)[C@@H](O[C@H]2C[C@@](C)(OC)[C@@H](O)[C@H](C)O2)[C@H](C)[C@@H](O[C@@H]2O[C@H](C)C[C@H](N(C)C)[C@H]2O)[C@](C)(O)C[C@@H](C)CN(C)[C@H](C)[C@@H](O)[C@]1(C)O [Azithromycin] has an IC90 (Shigella flexneri 2457T) of 7.49 µg/mL (≈ 10 µM).
In the case of CO/N=C(\C(=O)N[C@@H]1C(=O)N2C(C(=O)O)=C(CSc3nc(=O)c(=O)[nH]n3C)CS[C@H]12)c1csc(N)n1 [Ceftriaxone], the IC90 (Shigella flexneri 2457T) is reported as 0.067 µg/mL (≈ 0.121 µM) and the MIC (S. flexneri 2457T [1]) is reported as 0.2 µM (≈ 0.111 µg/mL).
In the case of O=C(O)c1cn(C2CC2)c2cc(N3CCNCC3)c(F)cc2c1=O [Ciprofloxacin], the IC90 (Shigella flexneri 2457T) is reported as 0.02 µg/mL (≈ 0.0604 µM), the MIC (S. flexneri 2457T [1]) is reported as 0.06 µM (≈ 0.0199 µg/mL) and the “S. flexneri CFUs in gastrointestinal tissue” value (S. flexneri 2457T [4]) is reported as under 80 CFU.
